Here are results for 17 molecules from PubChem BioAssay AID248 (DTP/NCI, 2004).

The subject of this assay is L1210 leukemia ip in BDF1 mice, survival T/C. In words: NCI In Vivo Anticancer Drug Screen. Data for tumor model L1210 Leukemia (intraperitoneal) in B6D2F1 (BDF1) mice. Conditions: endpoint: mean survival time, higher = longer survival. In outline: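 Transplanted-tumor mice were given test agent; controls received vehicle only. Survival readings from the two groups were divided (treated over control).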

Where [1] appears, read: dose: 100.0 mg/kg/injection, schedule: Q01DX009 (ip), vehicle: saline with Tween-80.
Where [2] appears, read: dose: 200.0 mg/kg/injection, schedule: Q01DX009 (ip), vehicle: saline with Tween-80.
Where [3] appears, read: dose: 400.0 mg/kg/injection, schedule: Q01DX009 (ip), vehicle: saline with Tween-80.
The mark [4] stands for this setting: dose: 25.0 mg/kg/injection, schedule: Q04DX003 (ip), vehicle: saline.
[5] abbreviates: dose: 50.0 mg/kg/injection, schedule: Q01DX009 (ip), vehicle: saline.
Where [6] appears, read: dose: 50.0 mg/kg/injection, schedule: Q04DX003 (ip), vehicle: saline.
The mark [7] stands for this setting: dose: 100.0 mg/kg/injection, schedule: Q01DX009 (ip), vehicle: saline.
The mark [8] stands for this setting: dose: 100.0 mg/kg/injection, schedule: Q04DX003 (ip), vehicle: saline.

Each structure is given as a SMILES string. Values joined by “and” are separate entries in the source; they are usually repeats but may differ in a detail not shown here. Equal values may be shown once. Toxic doses and inconclusive results are not listed.

For the molecule `OCC1(c2ccccc2)OC1(c1ccccc1)c1ccccc1` (stereo not drawn), the T/C runs as follows: (dose: 6.25 mg/kg/injection, schedule: Q04DX002 (ip), vehicle: Klucel (hydroxypropylcellulose) (HPC)) 86 % of control; (dose: 12.5 mg/kg/injection, schedule: Q04DX002 (ip), vehicle: Klucel (hydroxypropylcellulose) (HPC)) 101 % of control; (dose: 25.0 mg/kg/injection, schedule: Q04DX002 (ip), vehicle: Klucel (hydroxypropylcellulose) (HPC)) 99 % of control and 101 % of control.
Consider `O=C1NC(=O)c2cccc3cccc1c23`, for which the T/C reads like this: (dose: 100.0 mg/kg/injection, schedule: Q01DX001 (ip), vehicle: saline with Tween-80) 98 % of control; (dose: 200.0 mg/kg/injection, schedule: Q01DX001 (ip), vehicle: saline with Tween-80) 102 % of control; (dose: 400.0 mg/kg/injection, schedule: Q01DX001 (ip), vehicle: saline with Tween-80) 102 % of control.
In the case of `CS(=O)(=O)OCC(=O)NCCCNC(=O)COS(C)(=O)=O`, the T/C was 123 % of control (dose: 17.5 mg/kg/injection, schedule: Q01DX013 (ip), vehicle: other); 122 % of control (dose: 18.8 mg/kg/injection, schedule: Q01DX015 (ip), vehicle: saline); 121 % of control (dose: 35.0 mg/kg/injection, schedule: Q01DX013 (ip), vehicle: other); 166 % of control (dose: 54.0 mg/kg/injection, schedule: Q01DX009 (ip), vehicle: saline); 155 % of control (dose: 75.0 mg/kg/injection, schedule: Q01DX015 (ip), vehicle: saline); 175 % of control (dose: 80.0 mg/kg/injection, schedule: Q01DX009 (ip), vehicle: saline). Further, the T/C runs as follows: (dose: 120.0 mg/kg/injection, schedule: Q01DX009 (ip), vehicle: saline) 202 % of control; (dose: 150.0 mg/kg/injection, schedule: Q01DX015 (ip), vehicle: saline) 150 % of control; (dose: 180.0 mg/kg/injection, schedule: Q01DX009 (ip), vehicle: saline) 164 % of control and 195 % of control; (dose: 256.0 mg/kg/injection, schedule: Q01DX009 (ip), vehicle: saline) 118 % of control.
On to `CCCCNC(=O)C1C=C2c3cccc4c3C(CN4)CC2N(C)C1` (stereo not drawn), for which the T/C (dose: 25.0 mg/kg/injection, schedule: Q01DX009 (ip), vehicle: saline with Tween-80) was 87 % of control and the T/C (dose: 50.0 mg/kg/injection, schedule: Q01DX009 (ip), vehicle: saline with Tween-80) is 89 % of control.
As for `O=C(CCCC(=O)N/N=C/c1cc(Cl)ccc1O)N/N=C\c1cc(Cl)ccc1O`, the T/C reads like this: (dose: 50.0 mg/kg/injection, schedule: Q01DX001 (ip), vehicle: saline) 98 % of control; (dose: 100.0 mg/kg/injection, schedule: Q01DX001 (ip), vehicle: saline) 93 % of control; (dose: 200.0 mg/kg/injection, schedule: Q01DX001 (ip), vehicle: saline) 96 % of control; (dose: 400.0 mg/kg/injection, schedule: Q01DX001 (ip), vehicle: saline) 98 % of control.
Turning to `CCN(c1ccccc1P(c1ccccc1)c1ccccc1)c1ccccc1P(c1ccccc1)c1ccccc1`, the T/C (dose: 25.6 mg/kg/injection, schedule: Q04DX002 (ip), vehicle: saline with Tween-80) was 89 % of control; the T/C (dose: 64.0 mg/kg/injection, schedule: Q04DX002 (ip), vehicle: saline with Tween-80) was 89 % of control; the T/C (dose: 160.0 mg/kg/injection, schedule: Q04DX002 (ip), vehicle: saline with Tween-80) was 89 % of control; the T/C (dose: 400.0 mg/kg/injection, schedule: Q04DX002 (ip), vehicle: saline with Tween-80) was 89 % of control.
Regarding `Cc1ccc(S(=O)(=O)Nc2ccc3nc(C)oc3c2)cc1`, the T/C under setting [1] was 100 % of control; the T/C (dose: 100.0 mg/kg/injection, schedule: Q04DX003 (ip), vehicle: saline with Tween-80) is 96 % of control; the T/C under setting [2] was 102 % of control; the T/C (dose: 200.0 mg/kg/injection, schedule: Q04DX003 (ip), vehicle: saline with Tween-80) is 91 % of control; the T/C under setting [3] is 93 % of control; the T/C (dose: 400.0 mg/kg/injection, schedule: Q04DX003 (ip), vehicle: saline with Tween-80) was 89 % of control.
Turning to `CCCCN(CCCC)CCCC#N`, the T/C reads like this: (dose: 25.0 mg/kg/injection, schedule: Q01DX009 (ip), vehicle: saline) 105 % of control; under setting [4], 106 % of control; under setting [5], 103 % of control; under setting [6], 100 % of control; under setting [7], 100 % of control; under setting [8], 103 % of control and 105 % of control.
On to `COCC1OC(OC2OCC3OC4(OCC(O)(C(C)OC)C5OCOC54)OC3C2OC)C(OC)C(O)C1OC1OC(C)C(OC)C(OC2OC(C)C3OC4(CC(O)C(OC5CC(OC6CC(C)([N+](=O)[O-])C(OC)C(C)O6)C(OC(=O)c6c(C)c(Cl)c(O)c(Cl)c6OC)C(C)O5)C(C)O4)OC3(C)C2O)C1O` (stereo not drawn), for which the T/C is 106 % of control under setting [5]; 106 % of control under setting [7]; 96 % of control (dose: 200.0 mg/kg/injection, schedule: Q01DX009 (ip), vehicle: saline).
As to `O=C1NC(=O)C(CO)(c2ccccc2)N1` (stereo not drawn), the T/C is 110 % of control (dose: 12.5 mg/kg/injection, schedule: Q04DX003 (ip), vehicle: saline); 103 % of control under setting [4]; 100 % of control under setting [6]; 94 % of control under setting [8]; 97 % of control (dose: 200.0 mg/kg/injection, schedule: Q04DX003 (ip), vehicle: saline); 100 % of control (dose: 400.0 mg/kg/injection, schedule: Q04DX003 (ip), vehicle: saline).
Take `O=C(O)c1cccnc1C(=O)O.[Cu+2]`: the T/C by setting is: (dose: 3.12 mg/kg/injection, schedule: Q01DX009 (ip), vehicle: Klucel (hydroxypropylcellulose) (HPC)) 107 % of control; (dose: 6.25 mg/kg/injection, schedule: Q01DX009 (ip), vehicle: Klucel (hydroxypropylcellulose) (HPC)) 94 % of control; (dose: 6.25 mg/kg/injection, schedule: Q04DX003 (ip), vehicle: Klucel (hydroxypropylcellulose) (HPC)) 94 % of control and 95 % of control; (dose: 12.5 mg/kg/injection, schedule: Q01DX001 (ip), vehicle: other) 108 % of control; (dose: 12.5 mg/kg/injection, schedule: Q01DX009 (ip), vehicle: Klucel (hydroxypropylcellulose) (HPC)) 92 % of control; (dose: 12.5 mg/kg/injection, schedule: Q04DX003 (ip), vehicle: Klucel (hydroxypropylcellulose) (HPC)) 101 % of control and 97 % of control. In addition, the T/C is, setting by setting: (dose: 25.0 mg/kg/injection, schedule: Q01DX001 (ip), vehicle: other) 89 % of control; (dose: 25.0 mg/kg/injection, schedule: Q04DX003 (ip), vehicle: Klucel (hydroxypropylcellulose) (HPC)) 95 % of control.
Regarding `COc1cccc(NN)c1`, the T/C by setting is: under setting [5], 100 % of control; under setting [8], 101 % of control.
For the molecule `CSC(N)=Nc1ccc(C(=O)O)cc1`, the T/C under setting [1] is 105 % of control, the T/C under setting [2] is 112 % of control and the T/C under setting [3] is 97 % of control.
On to `O=C(Nc1ccc(CCO)cc1)Nc1ccccc1F`, for which the T/C was 97 % of control (dose: 100.0 mg/kg/injection, schedule: Q01DX009 (ip), vehicle: Klucel (hydroxypropylcellulose) (HPC)); 88 % of control (dose: 200.0 mg/kg/injection, schedule: Q01DX009 (ip), vehicle: Klucel (hydroxypropylcellulose) (HPC)); 111 % of control (dose: 400.0 mg/kg/injection, schedule: Q01DX009 (ip), vehicle: Klucel (hydroxypropylcellulose) (HPC)).
Turning to `O=C(c1ccc(O)cc1)c1ccc(O)cc1O`, the T/C reads like this: (dose: 100.0 mg/kg/injection, schedule: Q01DX009 (ip), vehicle: saline sonified) 93 % of control; (dose: 200.0 mg/kg/injection, schedule: Q01DX009 (ip), vehicle: saline sonified) 98 % of control; (dose: 400.0 mg/kg/injection, schedule: Q01DX009 (ip), vehicle: saline sonified) 98 % of control.
`COc1ccc(C(=O)Nc2ccc(C)c(Cl)c2)cc1`: the T/C (dose: 100.0 mg/kg/injection, schedule: Q04DX002 (ip), vehicle: Klucel (hydroxypropylcellulose) (HPC)) was 115 % of control; the T/C (dose: 200.0 mg/kg/injection, schedule: Q04DX002 (ip), vehicle: Klucel (hydroxypropylcellulose) (HPC)) is 115 % of control; the T/C (dose: 400.0 mg/kg/injection, schedule: Q04DX002 (ip), vehicle: Klucel (hydroxypropylcellulose) (HPC)) was 112 % of control.
For `CCOC(=O)C(C)(c1c(C)n(C)c2ccccc12)c1c(C)n(C)c2ccccc12`, the T/C (dose: 50.0 mg/kg/injection, schedule: Q01DX001 (ip), vehicle: other) was 91 % of control; the T/C (dose: 100.0 mg/kg/injection, schedule: Q01DX001 (ip), vehicle: other) is 91 % of control; the T/C (dose: 200.0 mg/kg/injection, schedule: Q01DX001 (ip), vehicle: other) was 91 % of control; the T/C (dose: 400.0 mg/kg/injection, schedule: Q01DX001 (ip), vehicle: other) is 91 % of control.
